Patent US11697648B2, “Fused pyrimidine pyridinone compounds as JAK inhibitors” (THERAVANCE BIOPHARMA R&D IP, LLC, priority 2019, dated 2023)

Biological target: Tyk2 (Homo sapiens (Human), UniProt P29597)
Test: Biochemical Tyk2 kinase assay (LanthaScreen)
Conditions: not given
How it was run: (§1)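 GST-JAK + GFP-STAT1 peptide, HEPES pH 7.5/MgCl2/EGTA/Brij-35 buffer; cpd preincubation 1 h RT; ATP start, 1 h RT; stop with 10 mM EDTA + 2 nM Tb-anti-pSTAT1; TR-FRET 520/495. 4-parameter IC50 → pKi (Cheng-Prusoff).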

Chain of Tyk2 (P29597 whole entry): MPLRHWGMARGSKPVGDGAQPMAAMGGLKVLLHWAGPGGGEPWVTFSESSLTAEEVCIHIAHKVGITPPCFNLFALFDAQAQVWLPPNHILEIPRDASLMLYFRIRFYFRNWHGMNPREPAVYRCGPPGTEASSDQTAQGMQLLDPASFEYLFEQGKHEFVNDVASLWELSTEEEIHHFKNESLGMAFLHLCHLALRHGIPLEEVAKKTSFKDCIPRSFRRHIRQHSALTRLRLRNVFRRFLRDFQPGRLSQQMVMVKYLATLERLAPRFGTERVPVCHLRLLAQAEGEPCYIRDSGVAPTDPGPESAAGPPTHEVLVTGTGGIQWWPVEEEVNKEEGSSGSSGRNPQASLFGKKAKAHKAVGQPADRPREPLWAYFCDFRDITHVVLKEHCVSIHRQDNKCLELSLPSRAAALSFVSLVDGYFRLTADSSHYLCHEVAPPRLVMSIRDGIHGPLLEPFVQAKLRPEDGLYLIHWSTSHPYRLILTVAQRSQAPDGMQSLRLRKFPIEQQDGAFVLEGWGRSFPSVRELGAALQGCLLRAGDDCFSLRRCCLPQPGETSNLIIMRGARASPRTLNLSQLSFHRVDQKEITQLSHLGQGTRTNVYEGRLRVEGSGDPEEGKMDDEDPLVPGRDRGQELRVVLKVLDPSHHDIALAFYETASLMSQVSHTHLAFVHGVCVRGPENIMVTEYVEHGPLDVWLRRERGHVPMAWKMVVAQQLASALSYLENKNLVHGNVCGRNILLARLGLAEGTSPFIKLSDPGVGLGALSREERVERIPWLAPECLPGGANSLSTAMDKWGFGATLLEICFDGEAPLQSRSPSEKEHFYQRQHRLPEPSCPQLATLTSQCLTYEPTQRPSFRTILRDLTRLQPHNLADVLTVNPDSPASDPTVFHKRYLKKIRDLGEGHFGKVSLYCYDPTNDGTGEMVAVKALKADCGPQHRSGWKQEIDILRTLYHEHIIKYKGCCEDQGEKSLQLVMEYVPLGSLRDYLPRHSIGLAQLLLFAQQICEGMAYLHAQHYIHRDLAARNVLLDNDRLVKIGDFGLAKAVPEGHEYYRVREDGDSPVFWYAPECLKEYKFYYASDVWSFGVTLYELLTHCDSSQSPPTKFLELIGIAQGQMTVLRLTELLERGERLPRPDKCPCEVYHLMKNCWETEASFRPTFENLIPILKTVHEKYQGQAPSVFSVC

Compound	Tyk 2 (pKi)
C=CC(=O)N1CC(CCn2c(=O)ccc3cnc(Nc4ccc(N5CCN(S(=O)(=O)C6COC6)CC5)cc4)nc32)C1 [Example 102]	E (E represents a pKi value of 7 or below (Ki of 100 nM or above))
C=CC(=O)N1CC(CCn2c(=O)ccc3cnc(Nc4cccc(N5CCN(C(=O)CSC)CC5)c4)nc32)C1 [Example 107]	E (E represents a pKi value of 7 or below (Ki of 100 nM or above))
C=CC(=O)N1CC(CCn2c(=O)ccc3cnc(Nc4cccc(CN5CCN(C(=O)CCSC)CC5)c4)nc32)C1 [Example 110]	E (E represents a pKi value of 7 or below (Ki of 100 nM or above))
C=CC(=O)N1CC(CCn2c(=O)ccc3cnc(Nc4cccc(CN5CCN(C(=O)COC)CC5)c4)nc32)C1 [Example 112]	E (E represents a pKi value of 7 or below (Ki of 100 nM or above))
C=CC(=O)N1CC(CCn2c(=O)ccc3cnc(Nc4cccc(CN5CCN(C(C)=O)CC5)c4)nc32)C1 [Example 133]	E (E represents a pKi value of 7 or below (Ki of 100 nM or above))

Biological target: JAK1 (Homo sapiens (Human), UniProt P23458)
Sequence (P23458 whole entry): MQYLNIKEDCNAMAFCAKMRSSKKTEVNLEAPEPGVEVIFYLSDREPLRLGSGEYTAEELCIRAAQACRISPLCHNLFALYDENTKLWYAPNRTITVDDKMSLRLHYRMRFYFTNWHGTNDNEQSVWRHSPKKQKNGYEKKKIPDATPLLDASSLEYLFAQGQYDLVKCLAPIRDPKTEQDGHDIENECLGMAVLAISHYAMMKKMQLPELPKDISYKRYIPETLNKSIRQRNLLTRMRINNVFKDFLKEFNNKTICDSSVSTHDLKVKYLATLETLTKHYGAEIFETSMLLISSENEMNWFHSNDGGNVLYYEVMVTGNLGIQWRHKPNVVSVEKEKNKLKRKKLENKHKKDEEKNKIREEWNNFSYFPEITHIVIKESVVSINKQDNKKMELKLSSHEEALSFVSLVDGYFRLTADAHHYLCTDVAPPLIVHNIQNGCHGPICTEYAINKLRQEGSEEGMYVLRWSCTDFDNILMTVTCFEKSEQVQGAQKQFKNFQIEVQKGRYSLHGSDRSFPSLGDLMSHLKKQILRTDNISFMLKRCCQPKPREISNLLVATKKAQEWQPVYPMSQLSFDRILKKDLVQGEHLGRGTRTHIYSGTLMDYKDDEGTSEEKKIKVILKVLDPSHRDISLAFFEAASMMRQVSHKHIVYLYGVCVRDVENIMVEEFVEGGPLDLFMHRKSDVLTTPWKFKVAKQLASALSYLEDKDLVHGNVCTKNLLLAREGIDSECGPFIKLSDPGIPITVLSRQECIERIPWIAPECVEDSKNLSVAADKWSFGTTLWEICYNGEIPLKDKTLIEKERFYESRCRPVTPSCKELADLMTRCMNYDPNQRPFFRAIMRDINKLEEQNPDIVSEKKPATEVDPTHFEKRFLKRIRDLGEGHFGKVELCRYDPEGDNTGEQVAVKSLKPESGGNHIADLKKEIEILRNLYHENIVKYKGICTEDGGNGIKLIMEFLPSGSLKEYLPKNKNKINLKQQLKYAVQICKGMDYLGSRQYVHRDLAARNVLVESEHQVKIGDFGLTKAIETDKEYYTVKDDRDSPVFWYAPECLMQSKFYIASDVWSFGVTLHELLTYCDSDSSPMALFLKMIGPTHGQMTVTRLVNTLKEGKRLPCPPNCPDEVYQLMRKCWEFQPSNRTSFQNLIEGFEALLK
Test: Biochemical JAK1 kinase assay (LanthaScreen)
Conditions: not given
How it was run: as §1

Compound	JAK 1 (pKi)
C=CC(=O)N1CC(CCn2c(=O)ccc3cnc(Nc4ccc(N5CCN(S(=O)(=O)C6COC6)CC5)cc4)nc32)C1 [Example 102]	E (E represents a pKi value of 7 or below (Ki of 100 nM or above))
C=CC(=O)N1CC(CCn2c(=O)ccc3cnc(Nc4cccc(N5CCN(C(=O)CSC)CC5)c4)nc32)C1 [Example 107]	E (E represents a pKi value of 7 or below (Ki of 100 nM or above))
C=CC(=O)N1CC(CCn2c(=O)ccc3cnc(Nc4cccc(CN5CCN(C(=O)CCSC)CC5)c4)nc32)C1 [Example 110]	E (E represents a pKi value of 7 or below (Ki of 100 nM or above))
C=CC(=O)N1CC(CCn2c(=O)ccc3cnc(Nc4cccc(CN5CCN(C(=O)COC)CC5)c4)nc32)C1 [Example 112]	E (E represents a pKi value of 7 or below (Ki of 100 nM or above))
C=CC(=O)N1CC(CCn2c(=O)ccc3cnc(Nc4cccc(CN5CCN(C(C)=O)CC5)c4)nc32)C1 [Example 133]	E (E represents a pKi value of 7 or below (Ki of 100 nM or above))

Tested on: Caco-2 cell monolayers
Test: Caco-2 permeation assay
Type: in vitro ADME
Conditions: 5 μM, A-B direction, with Verapamil (25 μM)
How it was run: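 Compounds tested at 5 μM in duplicate across Caco-2 monolayers, apical-to-basolateral, with 25 μM verapamil to block P-gp, at 37° C., 5% CO2. Apical and basal samples taken at 0 and 120 min, analysed by LC-MS/MS; Papp (cm/sec) calculated as dQ/(dt×Area×concentration).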

Compound	Caco Kp
C=CC(=O)N1CC(CCn2c(=O)ccc3cnc(Nc4ccc(N5CCN(S(=O)(=O)C6COC6)CC5)cc4)nc32)C1 [Example 102]	A (A represents a value below 5×10^−6 cm/sec)
C=CC(=O)N1CC(CCn2c(=O)ccc3cnc(Nc4cccc(N5CCN(C(=O)CSC)CC5)c4)nc32)C1 [Example 107]	A (A represents a value below 5×10^−6 cm/sec)
C=CC(=O)N1CC(CCn2c(=O)ccc3cnc(Nc4cccc(CN5CCN(C(=O)CCSC)CC5)c4)nc32)C1 [Example 110]	B (B represents a value between 5×10^−6 and 10×10^−6 cm/sec)
C=CC(=O)N1CC(CCn2c(=O)ccc3cnc(Nc4cccc(CN5CCN(C(=O)COC)CC5)c4)nc32)C1 [Example 112]	A (A represents a value below 5×10^−6 cm/sec)
C=CC(=O)N1CC(CCn2c(=O)ccc3cnc(Nc4cccc(CN5CCN(C(C)=O)CC5)c4)nc32)C1 [Example 133]	A (A represents a value below 5×10^−6 cm/sec)

Biological target: JAK2 (Homo sapiens (Human), UniProt O60674)
Sequence (O60674 whole entry): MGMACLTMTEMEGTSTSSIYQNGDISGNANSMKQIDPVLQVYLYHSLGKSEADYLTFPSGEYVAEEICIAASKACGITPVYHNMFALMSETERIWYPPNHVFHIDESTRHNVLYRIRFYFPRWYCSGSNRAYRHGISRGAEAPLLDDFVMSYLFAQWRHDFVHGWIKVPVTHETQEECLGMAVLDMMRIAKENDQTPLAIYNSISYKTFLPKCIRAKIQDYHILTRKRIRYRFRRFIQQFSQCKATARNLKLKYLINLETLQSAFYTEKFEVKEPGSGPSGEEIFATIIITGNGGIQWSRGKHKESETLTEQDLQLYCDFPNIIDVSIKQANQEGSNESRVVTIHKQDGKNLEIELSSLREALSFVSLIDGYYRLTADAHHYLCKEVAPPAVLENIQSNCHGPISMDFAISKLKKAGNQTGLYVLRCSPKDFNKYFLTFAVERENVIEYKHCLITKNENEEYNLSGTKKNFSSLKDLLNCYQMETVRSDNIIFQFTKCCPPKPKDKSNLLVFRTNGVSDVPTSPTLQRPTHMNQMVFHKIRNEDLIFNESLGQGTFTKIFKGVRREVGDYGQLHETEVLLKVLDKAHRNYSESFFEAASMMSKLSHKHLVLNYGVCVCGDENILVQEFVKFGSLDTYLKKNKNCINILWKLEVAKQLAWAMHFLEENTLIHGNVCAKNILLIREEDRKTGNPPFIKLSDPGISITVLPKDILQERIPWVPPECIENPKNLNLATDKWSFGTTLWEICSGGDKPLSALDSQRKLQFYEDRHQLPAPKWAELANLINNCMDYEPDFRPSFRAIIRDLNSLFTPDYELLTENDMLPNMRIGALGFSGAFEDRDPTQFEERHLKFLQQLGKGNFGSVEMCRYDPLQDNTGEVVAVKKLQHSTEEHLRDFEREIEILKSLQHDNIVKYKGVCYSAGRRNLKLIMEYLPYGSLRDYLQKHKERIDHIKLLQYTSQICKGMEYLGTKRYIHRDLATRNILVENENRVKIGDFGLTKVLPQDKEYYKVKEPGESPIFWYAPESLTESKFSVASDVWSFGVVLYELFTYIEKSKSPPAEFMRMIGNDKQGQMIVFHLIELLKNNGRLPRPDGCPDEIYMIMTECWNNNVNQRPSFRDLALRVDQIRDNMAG
Test: Biochemical JAK2 kinase assay (LanthaScreen)
Conditions: not given
How it was run: as §1

Compound	JAK 2 (pKi)
C=CC(=O)N1CC(CCn2c(=O)ccc3cnc(Nc4ccc(N5CCN(S(=O)(=O)C6COC6)CC5)cc4)nc32)C1 [Example 102]	E (E represents a pKi value of 7 or below (Ki of 100 nM or above))
C=CC(=O)N1CC(CCn2c(=O)ccc3cnc(Nc4cccc(N5CCN(C(=O)CSC)CC5)c4)nc32)C1 [Example 107]	E (E represents a pKi value of 7 or below (Ki of 100 nM or above))
C=CC(=O)N1CC(CCn2c(=O)ccc3cnc(Nc4cccc(CN5CCN(C(=O)CCSC)CC5)c4)nc32)C1 [Example 110]	E (E represents a pKi value of 7 or below (Ki of 100 nM or above))
C=CC(=O)N1CC(CCn2c(=O)ccc3cnc(Nc4cccc(CN5CCN(C(=O)COC)CC5)c4)nc32)C1 [Example 112]	E (E represents a pKi value of 7 or below (Ki of 100 nM or above))
C=CC(=O)N1CC(CCn2c(=O)ccc3cnc(Nc4cccc(CN5CCN(C(C)=O)CC5)c4)nc32)C1 [Example 133]	E (E represents a pKi value of 7 or below (Ki of 100 nM or above))

Tested on: not listed separately
Test: Colon and plasma mouse pharmacokinetics
Type: in vivo
Conditions: mouse, colon tissue / plasma; male Balb/c mice, 10 mg/kg PO; ratio of the colon AUC to the plasma AUC
Protocol: Assay 5: Colon and Plasma Mouse Pharmacokinetics
To 6 male Balb/c mice was administered 10 mg/kg of compound in 1% HPMC+0.1% Tween-80 by PO administration. At 0.5, 2 and 6 hours after dose administration, animals were anesthetized, and terminal blood samples were collected by cardiac puncture, followed by collection of colon contents and colon tissue.
Blood samples were collected into K2EDTA and stored on wet ice until processed to plasma by centrifugation (12000 rpm at 4° C.). Plasma samples were transferred to cluster tubes and placed on dry ice prior to freezer storage. The colon contents from each animal were collected at each terminal blood collection time point. The colon tissues were flushed with saline and patted dry. The colon and colon content tissues were homogenized using sterile water containing 0.1% formic acid 9:1 (water:tissue, v/w). The homogenized tissues and colon contents were transferred to cluster tubes and placed on dry ice prior to freezer storage. All samples were analyzed using LC/MS/MS against analytical standards.
The composite pharmacokinetic parameters of the compounds were determined by non-compartmental analysis using Phoenix WinNonlin Version 6 (Certara, St. Louis, Mo.) and using mean values from 2 animals/time point. For plasma concentrations below the quantification limit (BQL), the lowest concentration measurable or the BLOQ (below limit of quantification) was used.
A colon to plasma ratio was determined as the ratio of the colon AUC to the plasma AUC.

Compound	Kp
C=CC(=O)N1CC(CCn2c(=O)ccc3cnc(Nc4ccc(N5CCN(S(=O)(=O)C6COC6)CC5)cc4)nc32)C1 [Example 102]	> 1000
C=CC(=O)N1CC(CCn2c(=O)ccc3cnc(Nc4cccc(N5CCN(C(=O)CSC)CC5)c4)nc32)C1 [Example 107]	> 50
C=CC(=O)N1CC(CCn2c(=O)ccc3cnc(Nc4cccc(CN5CCN(C(=O)CCSC)CC5)c4)nc32)C1 [Example 110]	> 1000
C=CC(=O)N1CC(CCn2c(=O)ccc3cnc(Nc4cccc(CN5CCN(C(=O)COC)CC5)c4)nc32)C1 [Example 112]	> 100
C=CC(=O)N1CC(CCn2c(=O)ccc3cnc(Nc4cccc(CN5CCN(C(C)=O)CC5)c4)nc32)C1 [Example 133]	> 100

Biological target: JAK3 (Homo sapiens (Human), UniProt P52333)
Sequence (P52333 whole entry): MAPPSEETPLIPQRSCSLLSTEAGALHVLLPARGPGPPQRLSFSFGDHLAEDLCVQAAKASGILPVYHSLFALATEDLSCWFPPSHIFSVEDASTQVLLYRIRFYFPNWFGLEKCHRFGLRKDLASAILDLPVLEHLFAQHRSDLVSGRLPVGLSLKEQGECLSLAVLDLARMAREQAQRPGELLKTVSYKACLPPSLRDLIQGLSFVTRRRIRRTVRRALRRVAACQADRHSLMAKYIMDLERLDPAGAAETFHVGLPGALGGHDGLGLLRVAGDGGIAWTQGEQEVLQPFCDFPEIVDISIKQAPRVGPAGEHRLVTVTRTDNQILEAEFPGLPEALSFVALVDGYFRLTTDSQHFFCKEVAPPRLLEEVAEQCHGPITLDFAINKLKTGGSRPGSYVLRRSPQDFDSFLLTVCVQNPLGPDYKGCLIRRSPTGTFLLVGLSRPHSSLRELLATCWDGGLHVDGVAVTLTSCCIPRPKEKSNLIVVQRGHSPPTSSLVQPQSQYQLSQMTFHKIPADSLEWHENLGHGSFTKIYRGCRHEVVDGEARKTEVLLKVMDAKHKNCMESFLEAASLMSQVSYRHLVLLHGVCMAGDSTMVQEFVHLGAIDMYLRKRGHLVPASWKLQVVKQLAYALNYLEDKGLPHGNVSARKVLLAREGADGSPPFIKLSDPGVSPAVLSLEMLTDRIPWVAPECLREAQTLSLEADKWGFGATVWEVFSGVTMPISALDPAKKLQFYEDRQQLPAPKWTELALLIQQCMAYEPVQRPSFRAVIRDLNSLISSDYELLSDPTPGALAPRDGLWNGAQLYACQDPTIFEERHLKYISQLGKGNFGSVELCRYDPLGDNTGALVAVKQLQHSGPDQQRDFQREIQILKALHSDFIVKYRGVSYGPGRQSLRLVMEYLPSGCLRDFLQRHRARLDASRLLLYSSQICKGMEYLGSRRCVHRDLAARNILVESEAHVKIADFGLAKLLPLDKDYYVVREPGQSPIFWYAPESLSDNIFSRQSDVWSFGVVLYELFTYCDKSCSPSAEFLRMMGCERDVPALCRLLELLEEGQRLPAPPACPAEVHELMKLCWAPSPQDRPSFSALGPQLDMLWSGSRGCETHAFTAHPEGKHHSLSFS
Test: Biochemical JAK3 kinase assay (LanthaScreen)
Conditions: not given
How it was run: as §1

Compound	JAK 3 (pKi)
C=CC(=O)N1CC(CCn2c(=O)ccc3cnc(Nc4ccc(N5CCN(S(=O)(=O)C6COC6)CC5)cc4)nc32)C1 [Example 102]	A (A represents a pKi value≥10 (Ki≤0.1 nM))
C=CC(=O)N1CC(CCn2c(=O)ccc3cnc(Nc4cccc(N5CCN(C(=O)CSC)CC5)c4)nc32)C1 [Example 107]	B (B represents pKi value between 9 and 10 (Ki between 1 nM and 0.1 nM))
C=CC(=O)N1CC(CCn2c(=O)ccc3cnc(Nc4cccc(CN5CCN(C(=O)CCSC)CC5)c4)nc32)C1 [Example 110]	A (A represents a pKi value≥10 (Ki≤0.1 nM))
C=CC(=O)N1CC(CCn2c(=O)ccc3cnc(Nc4cccc(CN5CCN(C(=O)COC)CC5)c4)nc32)C1 [Example 112]	A (A represents a pKi value≥10 (Ki≤0.1 nM))
C=CC(=O)N1CC(CCn2c(=O)ccc3cnc(Nc4cccc(CN5CCN(C(C)=O)CC5)c4)nc32)C1 [Example 133]	A (A represents a pKi value≥10 (Ki≤0.1 nM))

Same assay, conditions: selectivity JAK3 over JAK1, difference of pKi

Compound	JAK3 (pKi)-JAK1 (pKi)
C=CC(=O)N1CC(CCn2c(=O)ccc3cnc(Nc4ccc(N5CCN(S(=O)(=O)C6COC6)CC5)cc4)nc32)C1 [Example 102]	A (A represents a value of 3 or above)
C=CC(=O)N1CC(CCn2c(=O)ccc3cnc(Nc4cccc(N5CCN(C(=O)CSC)CC5)c4)nc32)C1 [Example 107]	A (A represents a value of 3 or above)
C=CC(=O)N1CC(CCn2c(=O)ccc3cnc(Nc4cccc(CN5CCN(C(=O)CCSC)CC5)c4)nc32)C1 [Example 110]	A (A represents a value of 3 or above)
C=CC(=O)N1CC(CCn2c(=O)ccc3cnc(Nc4cccc(CN5CCN(C(=O)COC)CC5)c4)nc32)C1 [Example 112]	A (A represents a value of 3 or above)
C=CC(=O)N1CC(CCn2c(=O)ccc3cnc(Nc4cccc(CN5CCN(C(C)=O)CC5)c4)nc32)C1 [Example 133]	A (A represents a value of 3 or above)

Tested on: IL-2 stimulated STAT5 phosphorylation in Tall-1 human T cell line (JAK3)
Test: Cellular JAK3 potency assay: inhibition of IL-2 stimulated pSTAT5 in Tall-1 T cells
Type: cell-based
Conditions: IL-2 stimulated pSTAT5, Tall-1 T cells
How it was run: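 Tall-1 cells, 45,000 per well, preincubated 1 hour with compound at 37 °C, then stimulated 30 minutes with IL-2 at 300 ng/ml final. pSTAT5 (Tyr694/699) in lysates quantified by AlphaLISA SureFire Ultra. pIC50 derived from inhibition curves, given as mean with SD.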

Compound	Tall-1 (pIC50)
C=CC(=O)N1CC(CCn2c(=O)ccc3cnc(Nc4ccc(N5CCN(S(=O)(=O)C6COC6)CC5)cc4)nc32)C1 [Example 102]	B (B represents a pC50 value between 6.7 (included) and 7.5 (IC50 between 200 nM and 32 nM))
C=CC(=O)N1CC(CCn2c(=O)ccc3cnc(Nc4cccc(N5CCN(C(=O)CSC)CC5)c4)nc32)C1 [Example 107]	B (B represents a pC50 value between 6.7 (included) and 7.5 (IC50 between 200 nM and 32 nM))
C=CC(=O)N1CC(CCn2c(=O)ccc3cnc(Nc4cccc(CN5CCN(C(=O)CCSC)CC5)c4)nc32)C1 [Example 110]	A (A represents a pIC50 value≥7.5 (IC50≤32 nM))
C=CC(=O)N1CC(CCn2c(=O)ccc3cnc(Nc4cccc(CN5CCN(C(=O)COC)CC5)c4)nc32)C1 [Example 112]	B (B represents a pC50 value between 6.7 (included) and 7.5 (IC50 between 200 nM and 32 nM))
C=CC(=O)N1CC(CCn2c(=O)ccc3cnc(Nc4cccc(CN5CCN(C(C)=O)CC5)c4)nc32)C1 [Example 133]	B (B represents a pC50 value between 6.7 (included) and 7.5 (IC50 between 200 nM and 32 nM))
